Assay results as given in ChEMBL document CHEMBL4507276 (2021).

Assays:
[1] = target: Death-associated protein kinase 3 (Homo sapiens) (UniProt O43293); settings: Compound concentration 1000.0 nM
[2] = tested on: Epidermal growth factor receptor (Homo sapiens), P00533 [L861Q]; experiment: EGFR L861Q Invitrogen selectivity data (BI); settings: Compound concentration 3.0 uM
[3] = target: Oxysterols receptor LXR-beta (Homo sapiens) (UniProt P55055); experiment: LXR_BETAH_AGON Cerep selectivity data (BI); settings: filed as agonist, Compound concentration 20.0 uM
[4] = target: Motilin receptor (Homo sapiens) (UniProt O43193); experiment: MOTILINH_AGON Cerep selectivity data (BI); settings: filed as agonist, Compound concentration 20.0 uM
[5] = target: T1, TGF-beta receptor type-1 (Homo sapiens) (UniProt P36897); experiment: TGFBR1 Invitrogen selectivity data (BI); settings: Compound concentration 3.0 uM
T1 sequence (whole entry): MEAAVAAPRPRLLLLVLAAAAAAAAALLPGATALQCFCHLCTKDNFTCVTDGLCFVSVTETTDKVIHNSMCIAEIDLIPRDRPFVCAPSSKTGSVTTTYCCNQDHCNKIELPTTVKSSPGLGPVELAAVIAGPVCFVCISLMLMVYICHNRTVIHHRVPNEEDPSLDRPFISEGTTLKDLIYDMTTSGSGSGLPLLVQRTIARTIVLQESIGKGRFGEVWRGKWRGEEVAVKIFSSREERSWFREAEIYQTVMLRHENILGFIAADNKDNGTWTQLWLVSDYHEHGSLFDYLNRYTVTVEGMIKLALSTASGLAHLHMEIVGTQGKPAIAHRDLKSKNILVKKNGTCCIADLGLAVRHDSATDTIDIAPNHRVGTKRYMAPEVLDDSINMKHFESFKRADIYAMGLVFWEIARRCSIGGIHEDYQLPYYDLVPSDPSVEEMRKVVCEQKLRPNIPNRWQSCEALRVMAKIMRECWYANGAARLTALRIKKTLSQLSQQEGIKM

[6] = target: T2, Tyrosine-protein kinase ZAP-70 (Homo sapiens) (UniProt P43403); experiment: ZAP70 Invitrogen selectivity data (BI); settings: Compound concentration 3.0 uM
T2 sequence (whole entry): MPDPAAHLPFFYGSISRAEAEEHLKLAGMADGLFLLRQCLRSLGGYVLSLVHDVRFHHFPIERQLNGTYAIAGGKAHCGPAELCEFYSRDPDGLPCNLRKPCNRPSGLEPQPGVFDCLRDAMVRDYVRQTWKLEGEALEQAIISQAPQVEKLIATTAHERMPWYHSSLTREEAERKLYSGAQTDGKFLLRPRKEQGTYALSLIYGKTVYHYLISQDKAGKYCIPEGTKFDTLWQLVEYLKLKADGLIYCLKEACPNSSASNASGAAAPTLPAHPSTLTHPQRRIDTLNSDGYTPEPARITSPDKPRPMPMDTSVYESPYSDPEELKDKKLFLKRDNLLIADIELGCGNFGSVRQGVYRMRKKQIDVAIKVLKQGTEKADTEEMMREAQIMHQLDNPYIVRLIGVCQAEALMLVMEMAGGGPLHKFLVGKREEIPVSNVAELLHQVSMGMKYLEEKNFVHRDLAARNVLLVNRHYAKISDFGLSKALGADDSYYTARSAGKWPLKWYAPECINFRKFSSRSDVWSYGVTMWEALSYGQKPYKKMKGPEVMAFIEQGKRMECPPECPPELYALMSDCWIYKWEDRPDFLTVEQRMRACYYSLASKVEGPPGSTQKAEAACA

[7] = target: Adenosine receptor A3 (Homo sapiens) (UniProt P0DMS8); experiment: A3/H Cerep selectivity data (BI); settings: Compound concentration 20.0 uM
[8] = target: T3, Serine/threonine-protein kinase haspin (Homo sapiens) (UniProt Q8TF76); experiment: GSG2 Invitrogen selectivity data (BI); settings: Compound concentration 3.0 uM
T3 sequence (whole entry): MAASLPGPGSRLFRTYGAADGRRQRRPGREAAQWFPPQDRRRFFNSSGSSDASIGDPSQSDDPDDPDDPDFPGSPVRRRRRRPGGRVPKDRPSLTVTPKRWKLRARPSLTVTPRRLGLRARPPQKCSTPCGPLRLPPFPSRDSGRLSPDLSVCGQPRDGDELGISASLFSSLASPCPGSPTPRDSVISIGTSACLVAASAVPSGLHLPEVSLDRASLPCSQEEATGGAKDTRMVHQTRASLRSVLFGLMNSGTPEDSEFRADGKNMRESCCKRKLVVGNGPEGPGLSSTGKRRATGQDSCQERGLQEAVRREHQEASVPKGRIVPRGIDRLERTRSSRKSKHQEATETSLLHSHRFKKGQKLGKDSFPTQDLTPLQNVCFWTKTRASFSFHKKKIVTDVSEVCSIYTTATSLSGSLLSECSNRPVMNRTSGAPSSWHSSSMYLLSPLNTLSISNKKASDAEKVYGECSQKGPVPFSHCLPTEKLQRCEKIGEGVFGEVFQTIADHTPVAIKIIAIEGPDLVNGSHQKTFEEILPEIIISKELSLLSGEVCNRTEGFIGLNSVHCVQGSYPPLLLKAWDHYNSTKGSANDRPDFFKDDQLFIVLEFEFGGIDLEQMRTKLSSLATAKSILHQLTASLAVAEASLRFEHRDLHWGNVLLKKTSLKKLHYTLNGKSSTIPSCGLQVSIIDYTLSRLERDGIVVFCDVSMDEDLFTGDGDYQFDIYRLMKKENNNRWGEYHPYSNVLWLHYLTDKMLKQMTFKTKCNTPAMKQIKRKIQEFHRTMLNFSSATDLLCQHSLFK

[9] = target: T4, Protein kinase C iota type (Homo sapiens) (UniProt P41743); experiment: PRKCI Invitrogen selectivity data (BI); settings: Compound concentration 3.0 uM
T4 sequence (whole entry): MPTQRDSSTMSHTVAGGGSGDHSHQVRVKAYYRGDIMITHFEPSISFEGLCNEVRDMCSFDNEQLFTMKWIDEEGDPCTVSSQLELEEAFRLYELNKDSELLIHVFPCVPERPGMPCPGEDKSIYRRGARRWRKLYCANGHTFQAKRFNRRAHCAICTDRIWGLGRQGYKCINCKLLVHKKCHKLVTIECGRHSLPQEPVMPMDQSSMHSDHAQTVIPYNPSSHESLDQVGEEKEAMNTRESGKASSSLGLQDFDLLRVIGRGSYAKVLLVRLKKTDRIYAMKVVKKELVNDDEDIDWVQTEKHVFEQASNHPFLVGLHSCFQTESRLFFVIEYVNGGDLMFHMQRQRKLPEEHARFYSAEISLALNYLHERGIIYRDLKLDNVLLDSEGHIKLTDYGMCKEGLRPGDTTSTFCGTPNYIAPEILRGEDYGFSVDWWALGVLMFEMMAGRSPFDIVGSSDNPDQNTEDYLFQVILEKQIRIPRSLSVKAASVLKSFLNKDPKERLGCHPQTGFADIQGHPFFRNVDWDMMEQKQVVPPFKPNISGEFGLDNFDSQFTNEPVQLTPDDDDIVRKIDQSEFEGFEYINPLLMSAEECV

[10] = target: 5-hydroxytryptamine receptor 2B (Homo sapiens) (UniProt P41595); settings: Compound concentration 10.0 uM
[11] = target: Glucocorticoid receptor (Homo sapiens) (UniProt P04150); experiment: GCORTICOID/H Cerep selectivity data (BI); settings: Compound concentration 20.0 uM
Sequence of Glucocorticoid receptor (Homo sapiens) (P04150 whole entry): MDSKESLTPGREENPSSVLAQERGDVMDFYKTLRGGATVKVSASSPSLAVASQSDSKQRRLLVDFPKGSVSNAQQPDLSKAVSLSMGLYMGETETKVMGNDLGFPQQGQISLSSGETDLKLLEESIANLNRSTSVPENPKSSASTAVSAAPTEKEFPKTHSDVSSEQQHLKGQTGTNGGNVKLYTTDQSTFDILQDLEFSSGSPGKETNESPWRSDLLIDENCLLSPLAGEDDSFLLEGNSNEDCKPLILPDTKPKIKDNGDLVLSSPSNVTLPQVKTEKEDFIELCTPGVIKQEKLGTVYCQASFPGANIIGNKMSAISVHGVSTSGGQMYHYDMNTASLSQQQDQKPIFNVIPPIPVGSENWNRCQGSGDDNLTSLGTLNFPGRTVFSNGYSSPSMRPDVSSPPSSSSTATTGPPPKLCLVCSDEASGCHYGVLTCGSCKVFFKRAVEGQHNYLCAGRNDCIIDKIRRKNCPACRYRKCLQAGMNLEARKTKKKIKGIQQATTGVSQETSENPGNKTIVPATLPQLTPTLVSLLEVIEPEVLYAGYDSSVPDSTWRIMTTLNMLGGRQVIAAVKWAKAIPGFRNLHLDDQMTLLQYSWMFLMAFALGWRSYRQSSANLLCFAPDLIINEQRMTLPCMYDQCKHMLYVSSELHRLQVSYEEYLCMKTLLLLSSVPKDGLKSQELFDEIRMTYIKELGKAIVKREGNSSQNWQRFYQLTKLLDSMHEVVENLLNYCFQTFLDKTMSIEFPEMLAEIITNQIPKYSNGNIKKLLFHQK

Sequence of 5-hydroxytryptamine receptor 2B (Homo sapiens) (P41595 whole entry): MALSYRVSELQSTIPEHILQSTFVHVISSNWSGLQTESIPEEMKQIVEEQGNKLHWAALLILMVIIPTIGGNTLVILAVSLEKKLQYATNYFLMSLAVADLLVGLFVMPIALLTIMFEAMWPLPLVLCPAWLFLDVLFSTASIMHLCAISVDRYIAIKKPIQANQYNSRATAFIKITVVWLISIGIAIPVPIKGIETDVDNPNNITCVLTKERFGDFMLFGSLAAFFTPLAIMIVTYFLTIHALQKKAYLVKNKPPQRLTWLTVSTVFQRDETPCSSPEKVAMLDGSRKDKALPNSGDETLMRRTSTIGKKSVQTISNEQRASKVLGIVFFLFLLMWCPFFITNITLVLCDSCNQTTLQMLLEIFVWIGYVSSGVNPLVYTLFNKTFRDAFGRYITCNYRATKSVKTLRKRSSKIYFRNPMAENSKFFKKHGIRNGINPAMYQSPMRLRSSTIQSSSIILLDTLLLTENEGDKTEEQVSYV
Sequence of Adenosine receptor A3 (Homo sapiens) (P0DMS8 whole entry): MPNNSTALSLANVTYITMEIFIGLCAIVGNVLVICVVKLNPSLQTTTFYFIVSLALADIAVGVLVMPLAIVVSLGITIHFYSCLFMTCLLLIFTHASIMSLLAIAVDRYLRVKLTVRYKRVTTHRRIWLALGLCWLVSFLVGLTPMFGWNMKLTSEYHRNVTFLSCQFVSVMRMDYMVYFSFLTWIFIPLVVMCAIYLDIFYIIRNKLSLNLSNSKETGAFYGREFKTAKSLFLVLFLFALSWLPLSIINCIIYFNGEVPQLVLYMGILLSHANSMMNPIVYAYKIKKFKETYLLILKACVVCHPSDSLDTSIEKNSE
Sequence of Death-associated protein kinase 3 (Homo sapiens) (O43293 whole entry, looked up): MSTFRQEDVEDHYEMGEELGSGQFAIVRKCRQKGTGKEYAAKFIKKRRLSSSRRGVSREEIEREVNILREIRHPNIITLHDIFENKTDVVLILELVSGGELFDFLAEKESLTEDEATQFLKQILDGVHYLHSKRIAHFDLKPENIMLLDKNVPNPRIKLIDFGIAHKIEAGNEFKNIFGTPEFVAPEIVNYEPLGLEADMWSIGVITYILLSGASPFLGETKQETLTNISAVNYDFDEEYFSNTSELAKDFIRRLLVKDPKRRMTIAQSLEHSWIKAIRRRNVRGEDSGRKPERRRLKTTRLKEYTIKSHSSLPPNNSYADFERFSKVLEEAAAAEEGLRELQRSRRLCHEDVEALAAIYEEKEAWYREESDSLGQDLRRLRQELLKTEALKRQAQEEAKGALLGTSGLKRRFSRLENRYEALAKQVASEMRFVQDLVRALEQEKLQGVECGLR
Sequence of Motilin receptor (Homo sapiens) (O43193 whole entry): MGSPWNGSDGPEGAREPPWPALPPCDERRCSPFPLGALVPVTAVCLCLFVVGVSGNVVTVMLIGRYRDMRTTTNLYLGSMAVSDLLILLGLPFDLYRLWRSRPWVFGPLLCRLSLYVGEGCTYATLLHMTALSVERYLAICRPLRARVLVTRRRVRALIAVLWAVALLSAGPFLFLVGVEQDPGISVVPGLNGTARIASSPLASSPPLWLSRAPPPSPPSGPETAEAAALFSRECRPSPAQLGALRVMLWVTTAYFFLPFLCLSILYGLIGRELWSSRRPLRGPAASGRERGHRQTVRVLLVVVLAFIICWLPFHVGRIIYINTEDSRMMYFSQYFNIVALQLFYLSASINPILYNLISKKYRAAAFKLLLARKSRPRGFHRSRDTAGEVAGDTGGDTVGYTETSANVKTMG
Sequence of Oxysterols receptor LXR-beta (Homo sapiens) (P55055 whole entry): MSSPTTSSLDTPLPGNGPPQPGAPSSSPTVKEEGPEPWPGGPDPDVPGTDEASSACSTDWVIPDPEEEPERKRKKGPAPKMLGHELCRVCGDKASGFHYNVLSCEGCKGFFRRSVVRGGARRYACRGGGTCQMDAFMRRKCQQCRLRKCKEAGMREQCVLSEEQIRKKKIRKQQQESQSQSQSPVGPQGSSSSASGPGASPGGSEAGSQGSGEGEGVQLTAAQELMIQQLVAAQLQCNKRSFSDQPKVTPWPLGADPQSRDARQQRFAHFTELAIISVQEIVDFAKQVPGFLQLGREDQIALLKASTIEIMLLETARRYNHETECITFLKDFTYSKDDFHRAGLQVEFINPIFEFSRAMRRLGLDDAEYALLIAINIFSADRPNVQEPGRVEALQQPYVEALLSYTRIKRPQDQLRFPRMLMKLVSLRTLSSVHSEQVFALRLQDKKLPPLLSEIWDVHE

CN(C)C(=O)Cn1cc(-c2nc(C3(c4ccc(-c5cnc(N)nc5)cc4)CC3)no2)cn1 [BI 0153]
inactive: residual activity [1] 92%

CN(C)C(=O)Cn1cc(-c2nc([C@@](C)(c3ccc(-c4cnc(N)nc4)cc3)C3CC3)no2)cn1 [BI 665915]
inactive: residual activity [2] 98% | residual activity [3] 118% | residual activity [4] 109% | residual activity [5] 96% | residual activity [6] 96% | residual activity [7] 64% | residual activity [8] 100% | residual activity [9] 97% | inhibition [10] -5.4% | residual activity [11] 96%
